SMILES strings stand for the structures. Read-outs that look alike come from different tables or passages of the source.

Common to all, as to type: cell-based
Test [1] concerns SARS-CoV-2 Delta variant. Kind of test: Viral load reduction assay in EPSC-derived eSTB cells (qRT-PCR of supernatant viral copies). Conditions: for IC50: read-out: IC50 for Delta variant in eSTBs. In general terms: Quantitative PCR measures a nucleic acid by following its amplification.
The test system of test [2] is SARS-CoV-2 Omicron variant. The description is as above. The following applies: for IC50: read-out: IC50 for Omicron variant in eSTBs.
The test system of test [3] is SARS-CoV-2 Omicron variant. Kind of test: Viral load reduction assay in naïve-eSTB cells. Conditions: compared with EPSC-eSTBs.
The subject of test [4] is SARS-CoV-2 Delta variant. The experiment in a line: Viral load reduction assay in naïve-eSTB cells. The following applies: compared with EPSC-eSTBs.
[5] abbreviates: Severe acute respiratory syndrome coronavirus 2, 48 h.

`CCC(CC)COC(=O)[C@H](C)N[P@](=O)(OC[C@H]1O[C@@](C#N)(c2ccc3c(N)ncnn23)[C@H](O)[C@@H]1O)Oc1ccccc1` [remdesivir]: the IC50 in test [1] (setting [5]) is 5.5 ± 1.2 nM; in test [2] (setting [5]) it was 4.1 ± 1.5 nM.
Regarding `CC(C)C[C@H](NC(=O)OCc1ccccc1)C(=O)N[C@@H](C[C@@H]1CCNC1=O)C(O)S(=O)(=O)[O-].[Na+]` (some centres unmarked) [GC376], in test [1] (EPSC-derived eSTB cells), the “Viral copy in the supernatant, Delta (FIG. 17B)” value is reported as “dose-dependent inhibition”. For the same compound, the “IC50 against Omicron variant in naïve-eSTBs” value in test [3] is reported as “similarly low”. In test [2] (EPSC-derived eSTB cells), the “Viral copy in the supernatant, Omicron (FIG. 17B)” value is “dose-dependent inhibition”. Moreover, the “IC50 against Delta variant in naïve-eSTBs” value in test [4] is given as “similarly low”.
Turning to `CC(C)C[C@H](NC(=O)OCc1ccccc1)C(=O)N[C@@H](CC1CCNC1=O)C(O)S(=O)(=O)O` (some centres unmarked) [GC376], the IC50 stood at 25.5 ± 3.2 nM in test [1] and 31.4 ± 4.1 nM in test [2].

For the origin of these results see patent publication US20230393122A1 (priority 2022, published 2023).
